Experimental data as given in patent US10638756B2, “Molecules having pesticidal utility, and intermediates, compositions, and processes, related thereto” (Dow AgroSciences LLC, priority 2017, dated 2020).

Experiments:
[1] = tested on: Beet Armyworm (Spodoptera exigua); assay: Bioassay on Beet Armyworm (BAW), 128-well diet tray assay; format: in vivo; conditions: Spodoptera exigua, 168 h; 50 μg/cm^2 on artificial diet, second instar larvae, five to seven days; read-out: BAW % Control (or Mortality) rating
Protocol: (§1) Certain molecules disclosed in this document were tested against BAW and CL using procedures described in the following examples. In the reporting of the results, the “BAW & CL Rating Table” was used (See Table Section).
Bioassays on BAW were conducted using a 128-well diet tray assay. […] Trays were covered with a clear self-adhesive cover, vented to allow gas exchange, and held at 25° C., 14:10 light-dark for five to seven days. Percent mortality was recorded for the larvae in each well; activity in the eight wells was then averaged. The results are indicated in the table entitled “Table ABC: Biological Results” (See Table Section).

[2] = tested on: Cabbage Looper (Trichoplusia ni); assay: Bioassay on Cabbage Looper (CL), 128-well diet tray assay; format: in vivo; conditions: 168 h, 50 μg/cm^2 on artificial diet, second instar larvae, five to seven days, read-out: CL % Control (or Mortality) rating
Protocol: as §1
Bioassays on CL were conducted using a 128-well diet tray assay. One to five second instar CL larvae were placed in each well (3 mL) of the diet tray that had been previously filled with 1 mL of artificial diet to which 50 μg/cm^2 of the test molecule (dissolved in 50 μL of 90:10 acetone-water mixture) had been applied (to each of eight wells) and then allowed to dry. Trays were covered with a clear self-adhesive cover, vented to allow gas exchange, and held at 25° C., 14:10 light-dark for five to seven days. Percent mortality was recorded for the larvae in each well; activity in the eight wells was then averaged. The results are indicated in the table entitled “Table ABC: Biological Results” (See Table Section).

SMILES	mortality at 50 µg/cm2 [1]	mortality at 50 µg/cm2 [2]
CN(NC(=O)c1ccc(/C(F)=C/C(c2cc(Br)c(F)c(Br)c2)C(F)(F)F)cc1C(F)(F)F)c1ccccc1 (stereo not drawn) [F123, (Z)-4-(3-(3,5-Dibromo-4-fluorophenyl)-1,4,4,4-tetrafluorobut-1-en-1-yl)-N′-methyl-N′-phenyl-2-(trifluoromethyl)benzohydrazide]	50 to 100%	50 to 100%
O=C(NNc1cccc(C(F)(F)F)n1)c1ccc(/C(F)=C/C(c2cc(Cl)c(Cl)c(Cl)c2)C(F)(F)F)cc1C(F)(F)F (stereo not drawn) [F141, (Z)-4-(1,4,4,4-Tetrafluoro-3-(3,4,5-trichlorophenyl)but-1-en-1-yl)-2-(trifluoromethyl)-N′-(6-(trifluoromethyl)pyridin-2-yl)benzohydrazide]	50 to 100%	50 to 100%
O=C(NNc1ncccn1)c1ccc(/C(F)=C/C(c2cc(Br)c(F)c(Br)c2)C(F)(F)F)cc1C(F)(F)F (stereo not drawn) [F163, (Z)-4-(3-(3,5-Dibromo-4-fluorophenyl)-1,4,4,4-tetrafluorobut-1-en-1-yl)-N′-(pyrimidin-2-yl)-2-(trifluoromethyl)benzohydrazide]	50 to 100%	50 to 100%
O=C(NNCCCC(F)(F)F)c1ccc(/C(F)=C/C(c2cc(Cl)c(Cl)c(Cl)c2)C(F)(F)F)cc1C(F)(F)F (stereo not drawn) [F103, (Z)-4-(1,4,4,4-tetrafluoro-3-(3,4,5-trichlorophenyl)but-1-en-1-yl)-N′-(4,4,4-trifluorobutyl)-2-(trifluoromethyl)benzohydrazide]	50 to 100%	50 to 100%
O=C(NNc1cccc(Cl)n1)c1ccc(/C(F)=C/C(c2cc(Cl)c(Cl)c(Cl)c2)C(F)(F)F)cc1C(F)(F)F (stereo not drawn) [F18, (Z)—N′-(6-Chloropyridin-2-yl)-4-(1,4,4,4-tetrafluoro-3-(3,4,5-trichlorophenyl)but-1-en-1-yl)-2-(trifluoromethyl)benzohydrazide]	50 to 100%	50 to 100%
O=C(NNc1cccnc1)c1ccc(/C(F)=C/C(c2cc(Cl)c(Cl)c(Cl)c2)C(F)(F)F)cc1C(F)(F)F (stereo not drawn) [F121, (Z)—N′-(Pyridin-3-yl)-4-(1,4,4,4-tetrafluoro-3-(3,4,5-trichlorophenyl)but-1-en-1-yl)-2-(trifluoromethyl)benzohydrazide]	50 to 100%	50 to 100%
O=C(NNc1ccccc1F)c1ccc(/C(F)=C/C(c2cc(Cl)c(Cl)c(Cl)c2)C(F)(F)F)cc1C(F)(F)F (stereo not drawn) [F28, (Z)—N′-(2-fluorophenyl)-4-(1,4,4,4-tetrafluoro-3-(3,4,5-trichlorophenyl)but-1-en-1-yl)-2(trifluoromethyl)benzohydrazide]	50 to 100%	50 to 100%
O=C(NNc1ncccn1)c1ccc(/C(F)=C/C(c2cc(Cl)c(Cl)c(C3CC3)c2)C(F)(F)F)cc1C(F)(F)F (stereo not drawn) [F191, (Z)-4-(3-(3,4-Dichloro-5-cyclopropylphenyl)-1,4,4,4-tetrafluorobut-1-en-1-yl)-N′-(pyrimidin-2-yl)-2-(trifluoromethyl)benzohydrazide]	50 to 100%	50 to 100%
O=C(NNC1=NCCN1)c1ccc(/C(F)=C/C(c2cc(Cl)c(Cl)c(Cl)c2)C(F)(F)F)cc1C(F)(F)F (stereo not drawn) [F116, (Z)—N′-(4,5-Dihydro-1H-imidazol-2-yl)-4-(1,4,4,4-tetrafluoro-3-(3,4,5-trichlorophenyl)but-1-en-1-yl)-2-(trifluoromethyl)benzohydrazide]	50 to 100%	50 to 100%
Cc1cc(C)c(NNC(=O)c2ccc(/C(F)=C/C(c3cc(Cl)c(Cl)c(Cl)c3)C(F)(F)F)cc2C(F)(F)F)c(C)c1 (stereo not drawn) [F73, (Z)—N′-Mesityl-4-(1,4,4,4-tetrafluoro-3-(3,4,5-trichlorophenyl)but-1-en-1-yl)-2-(trifluoromethyl)benzohydrazide]	50 to 100%	0 to 50%
O=C(NNc1ncccn1)c1ccc(/C(F)=C/C(c2cc(Cl)cc(Br)c2)C(F)(F)F)cc1C(F)(F)F (stereo not drawn) [F173, (Z)-4-(3-(3-Bromo-5-chlorophenyl)-1,4,4,4-tetrafluorobut-1-en-1-yl)-N′-(pyrimidin-2-yl)-2-(trifluoromethyl)benzohydrazide]	50 to 100%	50 to 100%
O=C(NNc1ccccc1[N+](=O)[O-])c1ccc(/C(F)=C/C(c2cc(Cl)c(Cl)c(Cl)c2)C(F)(F)F)cc1C(F)(F)F (stereo not drawn) [F118, (Z)—N′-(2-nitrophenyl)-4-(1,4,4,4-tetrafluoro-3-(3,4,5-trichlorophenyl)but-1-en-1-yl)-2-(trifluoromethyl)benzohydrazide]	50 to 100%	50 to 100%
Cc1cc(/C(F)=C/C(c2cc(Cl)c(Cl)c(Cl)c2)C(F)(F)F)ccc1C(=O)NN(C)c1ncccn1 (stereo not drawn) [F55, (Z)—N′,2-Dimethyl-N′-(pyrimidin-2-yl)-4-(1,4,4,4-tetrafluoro-3-(3,4,5-trichlorophenyl)but-1-en-1-yl)benzohydrazide]	50 to 100%	50 to 100%
O=C(NNC1CCC(F)(F)CC1)c1ccc(/C(F)=C/C(c2cc(Cl)c(Cl)c(Cl)c2)C(F)(F)F)cc1C(F)(F)F (stereo not drawn) [F146, (Z)—N′-(4,4-Difluorocyclohexyl)-4-(1,4,4,4-tetrafluoro-3-(3,4,5-trichlorophenyl)but-1-en-1-yl)-2-(trifluoromethyl)benzohydrazide]	50 to 100%	50 to 100%
Cc1nc(Cl)cc(NNC(=O)c2ccc(/C(F)=C/C(c3cc(Cl)c(Cl)c(Cl)c3)C(F)(F)F)cc2C(F)(F)F)n1 (stereo not drawn) [F79, (Z)—N′-(6-Chloro-2-methylpyrimidin-4-yl)-4-(1,4,4,4-tetrafluoro-3-(3,4,5-trichlorophenyl)but-1-en-1-yl)-2-(trifluoromethyl)benzohydrazide]	50 to 100%	50 to 100%
CC(C)CCNNC(=O)c1ccc(/C(F)=C/C(c2cc(Cl)c(Cl)c(Cl)c2)C(F)(F)F)cc1C(F)(F)F (stereo not drawn) [F145, (Z)—N′-Isopentyl-4-(1,4,4,4-tetrafluoro-3-(3,4,5-trichlorophenyl)but-1-en-1-yl)-2-(trifluoromethyl)benzohydrazide]	50 to 100%	50 to 100%
O=C(NNc1ncccn1)c1ccc(/C(F)=C/C(c2cc(Cl)c(Cl)c(Br)c2)C(F)(F)F)cc1C(F)(F)F (stereo not drawn) [F96, (Z)-4-(3-(3-Bromo-4,5-dichlorophenyl)-1,4,4,4-tetrafluorobut-1-en-1-yl)-N′-(pyrimidin-2-yl)-2-(trifluoromethyl)benzohydrazide]	50 to 100%	50 to 100%
O=C(NNc1ncccn1)c1ccc(/C(F)=C/C(c2cc(F)c(Cl)c(F)c2)C(F)(F)F)cc1C(F)(F)F (stereo not drawn) [F188, (Z)-4-(3-(4-Chloro-3,5-difluorophenyl)-1,4,4,4-tetrafluorobut-1-en-1-yl)-N′-(pyrimidin-2-yl)-2-(trifluoromethyl)benzohydrazide]	50 to 100%	50 to 100%
O=C(N/N=C/c1ccccc1)c1ccc(/C(F)=C/C(c2cc(Cl)c(Cl)c(Cl)c2)C(F)(F)F)cc1C(F)(F)F (stereo not drawn) [F38, N′-((E)-benzylidene)-4-((Z)-1,4,4,4-tetrafluoro-3-(3,4,5-trichlorophenyl)but-1-en-1-yl)-2-(trifluoromethyl)benzohydrazide]	50 to 100%	50 to 100%
O=C(NNc1ncc(C(F)(F)F)cn1)c1ccc(/C(F)=C/C(c2cc(Cl)c(Cl)c(Cl)c2)C(F)(F)F)cc1C(F)(F)F (stereo not drawn) [F101, (Z)-4-(1,4,4,4-Tetrafluoro-3-(3,4,5-trichlorophenyl)but-1-en-1-yl)-2-(trifluoromethyl)-N′-(5-(trifluoromethyl)pyrimidin-2-yl)benzohydrazide]	50 to 100%	50 to 100%
COc1cnc(NNC(=O)c2ccc(/C(F)=C/C(c3cc(Cl)c(Cl)c(Cl)c3)C(F)(F)F)cc2C(F)(F)F)nc1 (stereo not drawn) [F90, (Z)—N′-(5-Methoxypyrimidin-2-yl)-4-(1,4,4,4-tetrafluoro-3-(3,4,5-trichlorophenyl)but-1-en-1-yl)-2-(trifluoromethyl)benzohydrazide]	50 to 100%	50 to 100%
C=Cc1cc(C(/C=C(\F)c2ccc(C(=O)NNc3ncccn3)c(C(F)(F)F)c2)C(F)(F)F)cc(Cl)c1Cl (stereo not drawn) [F168, (Z)-4-(3-(3,4-dichloro-5-vinylphenyl)-1,4,4,4-tetrafluorobut-1-en-1-yl)-N′-(pyrimidin-2-yl)-2-(trifluoromethyl)benzohydrazide]	50 to 100%	50 to 100%
O=C(NNc1c(Cl)cccc1Cl)c1ccc(/C(F)=C/C(c2cc(Cl)c(Cl)c(Cl)c2)C(F)(F)F)cc1C(F)(F)F (stereo not drawn) [F129, (Z)—N′-(2,6-dichlorophenyl)-4-(1,4,4,4-tetrafluoro-3-(3,4,5-trichlorophenyl)but-1-en-1-yl)-2-(trifluoromethyl)benzohydrazide]	50 to 100%	50 to 100%
CN(NC(=O)c1ccc(/C(F)=C/[C@H](c2cc(Cl)c(Cl)c(Cl)c2)C(F)(F)F)cc1C(F)(F)F)c1ncccn1 (single isomer, unassigned) [F29]	50 to 100%	50 to 100%
